Laboratory results as given in patent US8163921B2, “Hepatitis C virus inhibitors” (Bristol-Myers Squibb Company, priority 2008, dated 2012).
Read-outs that look alike come from different tables or passages of the source.

Legend:
[1] = target: T1, HCV NS3/4A protease complex, BMS strain (UniProt P27958, C1454S/C1711G, species not given); assay: FRET peptide assay to monitor HCV NS3/4A proteolytic activity (BMS strain); format: biochemical, HCV genotype 1a; settings: read-out: IC50 Range, HCV NS3/4A enzyme assay
T1 construct: other: HCV NS3/4A enzyme assay; class symbols; numeric values; fused on or other part: three-lysine solubilising tail at the C-terminus of NS4A; purified on Ni-NTA from the pET21b vector (His tag implied)
From the text: HCV NS3 protease complexes, derived from the BMS strain, H77 strain or J4L6S strain, were generated, as described below. These purified recombinant proteins were generated for use in a homogeneous assay (see below) to provide an indication of how effective compounds of the present disclosure would be in inhibiting HCV NS3 proteolytic activity.
Serum from an HCV-infected patient was obtained from Dr. T. Wright, San Francisco Hospital. An engineered full-length cDNA (compliment deoxyribonucleic acid) template of the HCV genome (BMS strain) was constructed from DNA fragments obtained by reverse transcription-PCR (RT-PCR) of serum RNA (ribonucleic acid) and using primers selected on the basis of homology between other genotype 1a strains. From the determination of the entire genome sequence, a genotype 1a was assigned to the HCV isolate according to the classification of Simmonds et al. (See P Simmonds, K A Rose, S Graham, S W Chan, F McOmish, B C Dow, E A Follett, P L Yap and H Marsden, J. Clin. Microbiol., 31(6), 1493-1503 (1993)). […] The infectious clones, H77 (1a genotype) and J4L6S (1b genotype) were obtained from R. Purcell (NIH) and the sequences are published in Genbank (AAB67036, see Yanagi, M., Purcell, R. H., Emerson, S. U. and Buldi, J. Proc. Natl. Acad. Sci. U.S.A. 94(16),8738-8743 (1997); AF054247, see Yanagi, M., St Claire, M., Shapiro, M., Emerson, S. U., Purcell, R. H. and Bukh, J, Virology 244 (1), 161-172. (1998)).
NS3/4A protease complex-containing fractions were pooled and loaded on a desalting column Superdex-S200 pre-equilibrated with buffer D (25 mM HEPES, pH 7.5, 20% glycerol, 300 mM NaCl, 0.2% TritonX-100, 10 mM βMB). Sample was loaded at a flow rate of 1 mL/min. NS3/4A protease complex-containing fractions were pooled and concentrated to approximately 0.5 mg/ml. The purity of the NS3/4A protease complexes, derived from the BMS, H77 and J4L6S strains, were judged to be greater than 90% by SDS-PAGE and mass spectrometry analyses. The enzyme was stored at −80° C., thawed on ice and diluted prior to use in assay buffer.
The purpose of this in vitro assay was to measure the inhibition of HCV NS3 protease complexes, derived from the BMS strain, H77 strain or J4L6S strain, as described above, by compounds of the present disclosure. This assay provides an indication of how effective compounds of the present disclosure would be in inhibiting HCV NS3 proteolytic activity.
In order to monitor HCV NS3/4A protease activity, an NS3/4A peptide substrate was used. The substrate was RET S1 (Resonance Energy Transfer Depsipeptide Substrate; AnaSpec, Inc. cat #22991)(FRET peptide), described by Taliani et al. in Anal. Biochem. 240(2):60-67 (1996). The sequence of this peptide is loosely based on the NS4A/NS4B natural cleavage site for the HCV NS3 protease except there is an ester linkage rather than an amide bond at the cleavage site. The peptide also contains a fluorescence donor, EDANS, near one end of the peptide and an acceptor, DABCYL, near the other end. The fluorescence of the peptide is quenched by […] resonance energy transfer (RET) between the donor and the acceptor, but as the NS3 protease cleaves the peptide the products are released from RET quenching and the fluorescence of the donor becomes apparent.
The peptide substrate was incubated with one of the three recombinant NS3/4A protease complexes, in the absence or presence of a compound of the present disclosure. The inhibitory effects of a compound were determined by monitoring the formation of fluorescent reaction product in real time using a Cytofluor Series 4000.
Assay buffer: 50 mM HEPES, pH 7.5; 0.15 M NaCl; 0.1% Triton; 15% Glycerol; 10 mM βME. Substrate: 2 μM final concentration (from a 2 mM stock solution in DMSO stored at −20° C.). HCV NS3/4A protease type 1a (1b), 2-3 nM final concentration (from a 5 μM stock solution in 25 mM HEPES, pH 7.5, 20% glycerol, 300 mM NaCl, 0.2% Triton-X100, 10 mM βME). […]

[2] = tested on: HCV replicon in HUH-7 cells; assay: HCV replicon FRET assay; format: cell-based, HCV strain 1b; settings: Hepatitis C virus
From the text: An HCV replicon whole cell system was established as described by Lohmann V, Korner F, Koch J, Herian U, Theilmann L, Bartenschlager R., Science 285(5424):110-3 (1999). This system enabled us to evaluate the effects of our HCV Protease compounds on HCV RNA replication. Briefly, using the HCV strain 1b sequence described in the Lohmann paper (Assession number:AJ238799), an HCV cDNA was synthesized by Operon Technologies, Inc. (Alameda, Calif.), and the full-length replicon was then assembled in plasmid pGem9zf(+) (Promega, Madison, Wis.) using standard molecular biology techniques. The replicon consists of (i) the HCV 5′ UTR fused to the first 12 amino acids of the capsid protein, (ii) the neomycin phosphotransferase gene (neo), (iii) the IRES from encephalomyocarditis virus (EMCV), and (iv) HCV NS3 to NS5B genes and the HCV 3′ UTR. Plasmid DNAs were linearized with ScaI and RNA transcripts were synthesized in vitro using the T7 MegaScript transcription kit (Ambion, Austin, Tex.) according to manufacturer's directions. In vitro transcripts of the eDNA were transfected into the human hepatoma cell line, HUH-7. […] Resulting cell lines were characterized for positive and negative strand RNA production and protein production over time.
The HCV replicon FRET assay was developed to monitor the inhibitory effects of compounds described in the disclosure on HCV viral replication. HUH-7 cells, constitutively expressing the HCV replicon, were grown in Dulbecco's Modified Eagle Media (DMEM) (Gibco-BRL) containing 10% Fetal calf serum (FCS) (Sigma) and 1 mg/ml G418 (Gibco-BRL). Cells were seeded the night before (1.5×10^4 cells/well) in 96-well tissue-culture sterile plates. Compound and no compound controls were prepared in DMEM containing 4% FCS, 1:100 Penicillin/Streptomysin (Gibco-BRL), 1:100 L-glutamine and 5% DMSO in the dilution plate (0.5% DMSO final concentration in the assay). Compound/DMSO mixes were added to the cells and incubated for 4 days at 37° C. After 4 days, cells were first assessed for cytotoxicity using alamar Blue (Trek Diagnotstic Systems) for a CC50 reading. The toxicity of compound (CC50) was determined by adding 1/10th volume of alamar Blue to the media incubating the cells. After 4 h, the fluorescence signal from each well was read, with an excitation wavelength at 530 nm and an emission wavelength of 580 nm, using the Cytofluor Series 4000 (Perspective Biosystems). Plates were then rinsed thoroughly with Phosphate-Buffered Saline (PBS) (3 times 150 μl).

Work on C=C[C@@H]1C[C@]1(NC(=O)[C@@H]1C[C@@H](Oc2ncc(OC)c3ccc(Cl)cc23)CN1C(=O)C(Nc1ccc(-c2ccccc2)c(OC)c1)C(C)(C)C)C(=O)NS(=O)(=O)C1CC1 (single isomer, unassigned) [Example 18A] yielded an IC50 ([1]; numeric values) of 54 nM and an EC50 ([2]; Huh-7, HCV replicon cell assay, numeric values, read-out: EC50 Range) of 78.1 nM.
C=C[C@@H]1C[C@]1(NC(=O)[C@@H]1C[C@@H](Oc2cc(-c3ccccc3)nc3cc(OC)ccc23)CN1C(=O)[C@@H](Nc1nc(-c2ccccc2)cs1)C(C)(C)C)C(=O)NS(=O)(=O)C1CC1 [Example 1] showed an IC50 ([1]; class symbols) of 1 to 20 nM and an EC50 ([2]; Huh-7, read-out: EC50 Range) of 1 to 50 nM.
With C=C[C@@H]1C[C@]1(NC(=O)[C@@H]1C[C@@H](Oc2cc(-c3ccccc3)nc3cc(OC)ccc23)CN1C(=O)[C@@H](Nc1nc(-c2ccccc2OC)cs1)C(C)(C)C)C(=O)NS(=O)(=O)C1CC1 [Example 2] the IC50 ([1]; class symbols) was 1 to 20 nM and the EC50 ([2]; Huh-7, read-out: EC50 Range) was 1 to 50 nM.
In the case of C=C[C@@H]1C[C@]1(NC(=O)[C@@H]1C[C@@H](Oc2cc(-c3ccccc3)nc3cc(OC)ccc23)CN1C(=O)[C@@H](Nc1nc(-c2cccc(OC)c2)cs1)C(C)(C)C)C(=O)NS(=O)(=O)C1CC1 [Example 3], the IC50 ([1]; class symbols) is reported as 1 to 20 nM and the EC50 ([2]; Huh-7, read-out: EC50 Range) is reported as 1 to 50 nM.
For C=C[C@@H]1C[C@]1(NC(=O)[C@@H]1C[C@@H](Oc2cc(-c3ccccc3)nc3cc(OC)ccc23)CN1C(=O)[C@@H](Nc1nc(-c2ccc(OC)cc2)cs1)C(C)(C)C)C(=O)NS(=O)(=O)C1CC1 [Example 4], the IC50 ([1]; class symbols) was 1 to 20 nM and the EC50 ([2]; Huh-7, read-out: EC50 Range) was 1 to 50 nM.
For C=C[C@@H]1C[C@]1(NC(=O)[C@@H]1C[C@@H](Oc2cc(-c3ccccc3)nc3cc(OC)ccc23)CN1C(=O)[C@@H](Nc1nc(-c2ccc(F)cc2)cs1)C(C)(C)C)C(=O)NS(=O)(=O)C1CC1 [Example 5], the IC50 ([1]; class symbols) was 1 to 20 nM and the EC50 ([2]; Huh-7, read-out: EC50 Range) was 1 to 50 nM.
For C=C[C@@H]1C[C@]1(NC(=O)[C@@H]1C[C@@H](Oc2ncc(OC)c3ccc(Cl)cc23)CN1C(=O)[C@@H](Nc1nc(-c2ccc(F)c(F)c2)cs1)C(C)(C)C)C(=O)NS(=O)(=O)C1CC1 [Example 6, (2S,4R)-4-(7-chloro-4-methoxyisoquinolin-1-yloxy)-N-((1R,2S)-1-(cyclopropylsulfonylcarbamoyl)-2-vinylcyclopropyl)-1-((S)-2-(4-(3,4-difluorophenyl)thiazol-2-ylamino)-3,3-dimethylbutanoyl)pyrrolidine-2-carboxamide], the IC50 ([1]; class symbols) was 1 to 20 nM and the EC50 ([2]; Huh-7, read-out: EC50 Range) was 1 to 50 nM.
In the case of C=C[C@@H]1C[C@]1(NC(=O)[C@@H]1C[C@@H](Oc2ncc(OC)c3ccc(Cl)cc23)CN1C(=O)[C@@H](Nc1nc(-c2ccc(OC)cc2)cs1)C(C)(C)C)C(=O)NS(=O)(=O)C1CC1 [Example 7], the IC50 ([1]; class symbols) is reported as 1 to 20 nM and the EC50 ([2]; Huh-7, read-out: EC50 Range) is reported as 1 to 50 nM.
C=C[C@@H]1C[C@]1(NC(=O)[C@@H]1C[C@@H](Oc2ncc(OC)c3ccc(Cl)cc23)CN1C(=O)[C@@H](Nc1nc(-c2ccc(OC(F)F)cc2)cs1)C(C)(C)C)C(=O)NS(=O)(=O)C1CC1 [Example 8] gave an IC50 ([1]; class symbols) of 1 to 20 nM and an EC50 ([2]; Huh-7, read-out: EC50 Range) of 1 to 50 nM.
C=C[C@@H]1C[C@]1(NC(=O)[C@@H]1C[C@@H](Oc2ncc(OC)c3ccc(Cl)cc23)CN1C(=O)[C@@H](Nc1nc(-c2ccccc2)c(C)s1)C(C)(C)C)C(=O)NS(=O)(=O)C1CC1 [Example 9, (2S,4R)-4-(7-chloro-4-methoxyisoquinolin-1-yloxy)-N-((1R,2S)-1-(cyclopropylsulfonylcarbamoyl)-2-vinylcyclopropyl)-1-((S)-3,3-dimethyl-2-(5-methyl-4-phenylthiazol-2-ylamino)butanoyl)pyrrolidine-2-carboxamide] showed an IC50 ([1]; class symbols) of 1 to 20 nM and an EC50 ([2]; Huh-7, read-out: EC50 Range) of 1 to 50 nM.
Work on C=C[C@@H]1C[C@]1(NC(=O)[C@@H]1C[C@@H](Oc2ncc(OC)c3ccc(Cl)cc23)CN1C(=O)[C@@H](Nc1nc(-c2ccc(S(C)(=O)=O)cc2)cs1)C(C)(C)C)C(=O)NS(=O)(=O)C1CC1 [Example 89] yielded an IC50 ([1]; class symbols) of 1 to 20 nM.
In the case of C=C[C@@H]1C[C@]1(NC(=O)[C@@H]1C[C@@H](Oc2ncc(OC)c3ccc(Cl)cc23)CN1C(=O)[C@@H](Nc1nc(-c2sccc2Cl)cs1)C(C)(C)C)C(=O)NS(=O)(=O)C1CC1 [Example 90], the IC50 ([1]; class symbols) is reported as 1 to 20 nM.
C=C[C@@H]1C[C@]1(NC(=O)[C@@H]1C[C@@H](Oc2ncc(OC)c3ccc(Cl)cc23)CN1C(=O)[C@@H](Nc1nc(-c2ccc(Oc3ccccc3)cc2)cs1)C(C)(C)C)C(=O)NS(=O)(=O)C1CC1 [Example 91] showed an IC50 ([1]; class symbols) of 1 to 20 nM.
C=C[C@@H]1C[C@]1(NC(=O)[C@@H]1C[C@@H](Oc2ncc(OC)c3ccc(Cl)cc23)CN1C(=O)[C@@H](Nc1nc(-c2cccc(C(F)(F)F)c2)cs1)C(C)(C)C)C(=O)NS(=O)(=O)C1CC1 [Example 94] showed an IC50 ([1]; class symbols) of 1 to 20 nM.
C=C[C@@H]1C[C@]1(NC(=O)[C@@H]1C[C@@H](Oc2ncc(OC)c3ccc(Cl)cc23)CN1C(=O)[C@@H](Nc1nc(-c2ccccc2C(F)(F)F)cs1)C(C)(C)C)C(=O)NS(=O)(=O)C1CC1 [Example 95] showed an IC50 ([1]; numeric values) of 17 nM.
Compound C=C[C@@H]1C[C@]1(NC(=O)[C@@H]1C[C@@H](Oc2ncc(OC)c3ccc(Cl)cc23)CN1C(=O)[C@@H](Nc1nc(-c2nc3ccccc3s2)cs1)C(C)(C)C)C(=O)NS(=O)(=O)C1CC1 [Example 96] has an IC50 ([1]; class symbols) of 1 to 20 nM.
